Experimental data: PMC11647725, “Discovery of 4-(5-Membered)Heteroarylether-6-methylpicolinamide Negative Allosteric Modulators of Metabotropic Glutamate Receptor Subtype 5” (ACS Medicinal Chemistry Letters, 2024)

Key:
[1] = Intrinsic clearance in rat liver microsomes; format: in vitro ADME
Experimental: (§1) Mean values for each species were calculated from 3 replicates.
(§2) Intrinsic Clearance in Rat and Human Liver Microsomes
(§3) The in vitro intrinsic clearance (CL int) was investigated in commercially obtained hepatic microsomes from rat and human donors using the substrate depletion (i.e., loss-of-parent vs. time, or t 1/2 method) approach with analyte detection via liquid chromatography-tandem mass spectrometry (LC-MS/MS). For each species, mean %parent remaining values at each time point were calculated from replicates raw data (analyte:IS peak area ratios) and used to determine in vitro t 1/2 and CLint.
(§4) Experiments were carried out using a robot-assisted (TECAN model Evo 200). Compound was incubated (1 µM final concentration) in buffer (100 mM potassium phosphate pH 7.4 with 3 mM MgCl2) containing hepatic microsomes (0.5 mg/mL final concentration) from multiple species, discretely, at 37 °C under constant orbital shaking. After 5 minutes (pre-incubation), reactions were initiated by addition of nicotinamide adenine dinucleotide phosphate (NADPH, 1 mM final concentration). At selected time intervals (0, 3, 7, 15, 25, and 45 minutes) post-addition of NADPH, aliquots (50 µL) were taken and placed into a 96-shallow-well plate containing ice cold acetonitrile (150 µL) with carbamazepine (IS, 50 nM). The plates were then centrifuged (3000 rcf at 4 °C) for 10 minutes. The supernatants were transferred to a new 96-shallow-well daughter plate and diluted (1:1 v/v) with water (Milli-Q filtered). The plates were then sealed in preparation for LC-MS/MS analysis (see below).
(§5) Raw LC-MS/MS peak area data generated from the assay samples were used to construct natural log-transformed %parent remaining vs. time plots (using t = 0 minute post-NADPH addition sample data as starting point set to 100%). In vitro compound half-life (t 1/2) values were obtained using the following […]
(§6) k is the slope from linear regression analysis of the natural log-transformed data (using means from Where all replicates at each time point). Resulting t 1/2 values were then used to calculate hepatic CLint values according to the following equation and with the use of species-specific scale-up factors for liver weight (grams) per total body weight (kg): […]
(§7) CLint = in vitro t1/2 x 0.5 mg microsomes x 1 gram liver x kg body wt aScale-up factors used are 45 (rat) and 20 (human).4
(§8) Predicted hepatic clearance (CLhep) was calculated using the following equation: […]
(§9) Qh represents hepatic blood flow (mL/min/kg): 21 for human, 70 for rat, and 90 for mouse.
(§10) Prepared samples were injected (10 µL each) onto an AB Sciex Triple Quad 4500 mass spectrometer system with an Agilent 1260 Infinity II pump and autosampler. Mass spectrometer conditions are described in Table S1. Quantitation of compounds was performed via AB Sciex Multiquant software using the raw analyte:IS peak area ratios. The typical detection range was 0.5 ng/mL to ≥ 5,000 ng/mL utilizing a quadratic equation regression with 1/x2 weighting.
(§11) Correction for dilution of all brain samples (in extraction buffer and subsequently in blank plasma, as previously described) was performed post-quantitation. The corrections for dilution in extraction buffer employed correction factors specific to each brain weight (not shown).

[2] = Intrinsic clearance in human liver microsomes; format: in vitro ADME
Experimental: as §1, §2, §3, §4, §5, §6, §7, §8, §9, §10, §11

[3] = IV plasma-brain level determination (PBL) in rat; format: in vivo; conditions: male, Sprague-Dawley, brain and plasma, SD rat, 0.2 mg/kg IV
[4] = test system: Calcium Channel L-Type, Benzothiazepine; assay: Lead Profiling Screen, Eurofins Panlabs; format: binding; conditions: rat
Text: (§12) Nonetheless, as a non-aryl/heterobiaryl acetylene mGlu5 NAM with an encouraging in vivo rodent PK profile, we wished to further assess VU6043653 as a novel chemotype. Therefore, we compared metabolites in multiple species to better understand species differences in clearance and metabolism. […] Consistent with the high plasma clearance observed in dogs, high turnover was observed more so in dog hepatocytes than any other species tested (see the Supporting Information for additional details and results). To further evaluate our novel chemotype, the off-target and safety/toxicity profiles for this compound were further investigated.
(§13) Table S2. Lead Profiling Screen – Eurofins Panlabs for VU6043653.
(§14) Assay Name Species % inh at 10 μM […]

[5] = test system: Calcium Channel L-Type, Dihydropyridine; assay: Lead Profiling Screen, Eurofins Panlabs; format: binding; conditions: rat
Text: as §12, §13, §14

Calcium Channel N-Type = Calcium Channel N-Type (Rattus norvegicus, UniProt Q02294); assay: Lead Profiling Screen, Eurofins Panlabs; format: binding; conditions: read-out: % inh at 10 μM
Text: as §12, §13, §14

[6] = biological target: Epidermal Growth Factor (EGF) (Homo sapiens, UniProt P00533); assay: Lead Profiling Screen, Eurofins Panlabs; format: binding; conditions: hum, read-out: % inh at 10 μM
Text: as §12, §13, §14

[7] = test system: GABAA, Flunitrazepam, Central; assay: Lead Profiling Screen, Eurofins Panlabs; format: binding; conditions: rat
Text: as §12, §13, §14

GABAA, Muscimol, Central = assay: Lead Profiling Screen, Eurofins Panlabs; format: binding; conditions: rat
Text: as §12, §13, §14

Glutamate, Kainate = assay: Lead Profiling Screen, Eurofins Panlabs; format: binding; conditions: rat
Text: as §12, §13, §14

Glutamate, NMDA, Agonism = assay: Lead Profiling Screen, Eurofins Panlabs; format: binding; conditions: rat
Text: as §12, §13, §14

Glutamate, NMDA, Glycine = Glutamate, NMDA, Glycine (Rattus norvegicus, UniProt P35439); assay: Lead Profiling Screen, Eurofins Panlabs; format: binding; conditions: read-out: % inh at 10 μM
Text: as §12, §13, §14

[8] = test system: Glutamate, NMDA, Phencyclidine; assay: Lead Profiling Screen, Eurofins Panlabs; format: binding; conditions: rat
Text: as §12, §13, §14

[9] = biological target: Leukotriene, Cysteinyl CysLT1 (Homo sapiens, UniProt Q9Y271); assay: Lead Profiling Screen, Eurofins Panlabs; format: binding; conditions: Cysteinyl CysLT1, hum, read-out: % inh at 10 μM
Muscarinic M1 = Muscarinic M1 (Homo sapiens, UniProt P11229); assay: Lead Profiling Screen, Eurofins Panlabs; format: binding; conditions: Muscarinic M1, hum, read-out: % inh at 10 μM
Opiate κ (OP2, KOP) = Opiate κ (OP2, KOP) (Homo sapiens, UniProt P41145); assay: Lead Profiling Screen, Eurofins Panlabs; format: binding; conditions: hum, read-out: % inh at 10 μM
Phorbol Ester = assay: Lead Profiling Screen, Eurofins Panlabs; format: binding; conditions: mouse
[10] = biological target: Serotonin (5-Hydroxytryptamine) 5-HT1A (Homo sapiens, UniProt P08908); assay: Lead Profiling Screen, Eurofins Panlabs; format: binding; conditions: Serotonin 5-HT1A, hum, read-out: % inh at 10 μM
Sodium Channel, Site 2 = assay: Lead Profiling Screen, Eurofins Panlabs; format: binding; conditions: Site 2, rat
[11] = predicted hepatic clearance based on microsomal CLint

Chain of Opiate κ (OP2, KOP) (P41145 whole entry): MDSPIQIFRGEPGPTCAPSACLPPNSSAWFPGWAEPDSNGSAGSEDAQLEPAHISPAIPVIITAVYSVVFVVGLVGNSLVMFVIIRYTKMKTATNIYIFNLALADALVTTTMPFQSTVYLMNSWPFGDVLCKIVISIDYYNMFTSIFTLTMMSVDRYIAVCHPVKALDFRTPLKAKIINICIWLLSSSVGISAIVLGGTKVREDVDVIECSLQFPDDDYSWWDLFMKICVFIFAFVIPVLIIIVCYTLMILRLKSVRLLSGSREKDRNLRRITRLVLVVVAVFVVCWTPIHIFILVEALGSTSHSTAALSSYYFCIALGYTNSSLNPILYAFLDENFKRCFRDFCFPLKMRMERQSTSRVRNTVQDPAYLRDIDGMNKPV
Chain of Muscarinic M1 (P11229 whole entry): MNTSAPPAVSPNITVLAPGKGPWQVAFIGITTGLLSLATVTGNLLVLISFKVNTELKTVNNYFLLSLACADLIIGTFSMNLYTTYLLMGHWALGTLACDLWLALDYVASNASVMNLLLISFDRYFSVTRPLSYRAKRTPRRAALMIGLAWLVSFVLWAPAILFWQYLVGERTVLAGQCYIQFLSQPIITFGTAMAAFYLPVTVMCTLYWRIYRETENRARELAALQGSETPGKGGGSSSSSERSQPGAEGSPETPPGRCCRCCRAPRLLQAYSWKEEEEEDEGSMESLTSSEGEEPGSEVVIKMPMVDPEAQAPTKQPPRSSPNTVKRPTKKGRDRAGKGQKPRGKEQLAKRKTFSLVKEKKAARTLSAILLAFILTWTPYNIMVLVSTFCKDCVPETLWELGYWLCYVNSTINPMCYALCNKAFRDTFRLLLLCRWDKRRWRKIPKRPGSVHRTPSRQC
Chain of Epidermal Growth Factor (EGF) (P00533 25-1210): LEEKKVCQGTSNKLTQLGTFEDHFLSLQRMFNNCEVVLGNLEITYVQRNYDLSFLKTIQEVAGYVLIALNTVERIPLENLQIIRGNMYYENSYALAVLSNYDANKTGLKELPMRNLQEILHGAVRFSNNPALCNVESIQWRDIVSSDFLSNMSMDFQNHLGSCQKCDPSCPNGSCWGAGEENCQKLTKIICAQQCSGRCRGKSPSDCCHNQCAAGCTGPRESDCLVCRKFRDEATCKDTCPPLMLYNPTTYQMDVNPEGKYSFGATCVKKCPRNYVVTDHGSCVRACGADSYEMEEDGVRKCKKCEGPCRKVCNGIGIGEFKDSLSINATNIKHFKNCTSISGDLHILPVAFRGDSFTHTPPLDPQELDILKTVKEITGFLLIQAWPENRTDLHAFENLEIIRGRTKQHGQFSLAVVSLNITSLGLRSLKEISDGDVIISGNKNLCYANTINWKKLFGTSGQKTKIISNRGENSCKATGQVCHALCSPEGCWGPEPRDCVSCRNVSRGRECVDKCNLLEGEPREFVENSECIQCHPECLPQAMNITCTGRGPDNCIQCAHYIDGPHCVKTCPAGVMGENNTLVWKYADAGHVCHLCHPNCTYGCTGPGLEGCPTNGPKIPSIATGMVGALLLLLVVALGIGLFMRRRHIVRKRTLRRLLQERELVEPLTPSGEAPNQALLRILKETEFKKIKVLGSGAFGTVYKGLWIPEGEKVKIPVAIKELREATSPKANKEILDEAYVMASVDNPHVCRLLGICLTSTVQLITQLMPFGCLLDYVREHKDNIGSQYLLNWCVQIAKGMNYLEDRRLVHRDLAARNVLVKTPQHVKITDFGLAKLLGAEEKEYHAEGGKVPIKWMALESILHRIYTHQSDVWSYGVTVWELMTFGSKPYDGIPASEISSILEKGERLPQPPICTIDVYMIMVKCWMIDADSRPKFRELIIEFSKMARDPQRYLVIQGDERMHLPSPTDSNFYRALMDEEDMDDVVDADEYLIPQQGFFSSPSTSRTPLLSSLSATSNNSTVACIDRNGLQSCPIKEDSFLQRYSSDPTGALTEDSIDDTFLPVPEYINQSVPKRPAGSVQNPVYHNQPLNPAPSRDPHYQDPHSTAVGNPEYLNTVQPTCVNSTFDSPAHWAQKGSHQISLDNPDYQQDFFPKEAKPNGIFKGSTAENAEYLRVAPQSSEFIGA
Chain of Serotonin (5-Hydroxytryptamine) 5-HT1A (P08908 whole entry): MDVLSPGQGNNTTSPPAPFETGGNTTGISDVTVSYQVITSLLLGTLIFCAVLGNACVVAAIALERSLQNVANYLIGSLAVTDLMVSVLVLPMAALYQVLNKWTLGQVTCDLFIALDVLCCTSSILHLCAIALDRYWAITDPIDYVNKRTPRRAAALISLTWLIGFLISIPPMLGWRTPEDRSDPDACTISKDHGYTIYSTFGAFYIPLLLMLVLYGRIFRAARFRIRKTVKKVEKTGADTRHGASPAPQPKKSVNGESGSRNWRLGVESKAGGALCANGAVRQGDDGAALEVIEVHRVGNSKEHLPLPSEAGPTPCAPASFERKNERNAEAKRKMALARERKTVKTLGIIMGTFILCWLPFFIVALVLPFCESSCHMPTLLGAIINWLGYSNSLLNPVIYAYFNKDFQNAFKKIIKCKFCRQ
Chain of Leukotriene, Cysteinyl CysLT1 (Q9Y271 whole entry): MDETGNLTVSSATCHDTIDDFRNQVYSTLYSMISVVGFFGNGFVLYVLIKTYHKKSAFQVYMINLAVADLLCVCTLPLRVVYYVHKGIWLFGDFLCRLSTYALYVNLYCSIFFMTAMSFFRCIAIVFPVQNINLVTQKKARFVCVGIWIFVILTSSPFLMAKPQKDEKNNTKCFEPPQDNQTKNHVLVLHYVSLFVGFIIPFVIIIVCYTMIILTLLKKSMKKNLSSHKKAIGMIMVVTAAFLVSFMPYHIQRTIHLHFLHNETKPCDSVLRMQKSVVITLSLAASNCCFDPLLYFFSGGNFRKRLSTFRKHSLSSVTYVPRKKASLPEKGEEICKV
Chain of Glutamate, NMDA, Glycine (P35439 394-800 limits assumed): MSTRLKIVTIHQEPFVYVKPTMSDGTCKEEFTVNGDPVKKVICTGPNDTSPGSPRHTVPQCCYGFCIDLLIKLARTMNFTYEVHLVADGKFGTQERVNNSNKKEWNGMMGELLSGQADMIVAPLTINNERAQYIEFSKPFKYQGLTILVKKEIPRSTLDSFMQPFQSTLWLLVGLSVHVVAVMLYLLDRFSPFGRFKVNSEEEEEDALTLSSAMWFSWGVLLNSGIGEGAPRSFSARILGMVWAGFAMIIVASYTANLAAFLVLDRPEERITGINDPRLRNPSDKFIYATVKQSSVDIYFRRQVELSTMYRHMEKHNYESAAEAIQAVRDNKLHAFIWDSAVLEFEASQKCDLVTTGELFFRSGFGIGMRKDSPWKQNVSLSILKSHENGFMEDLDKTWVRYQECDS

For Cc1cc(Oc2cnn(C)c2)cc(C(=O)Nc2ccc(F)cn2)n1 [22iA], the CLint scaled at 40 min, 1 µM ([1]; pH 7.4, rat liver microsomes) was 48 mL/min/kg, the “CLhep, rat” value [1, 11] was 28 mL/min/kg and the CLint scaled at 40 min, 1 µM ([2]; pH 7.4, human liver microsomes) was 9 mL/min/kg. For the same molecule, the “CLhep, human” value [2, 11] was 6 mL/min/kg, the Kp at 0.25 h ([3]; total brain-to-plasma partition ratio) was 1.68 and the Kp uu at 0.25 h ([3]; unbound brain-to-plasma partition ratio) was 0.34. For the same molecule, the “% inh at 10 μM” value [4] was 22%, the “% inh at 10 μM” value [5] was 1% and the inhibition at 10 µM (Calcium Channel N-Type) was -8%. For the same molecule, the inhibition at 10 µM [6] was -3%, the “% inh at 10 μM” value [7] was 0% and the “% inh at 10 μM” value (GABAA, Muscimol, Central) was -5%. The “% inh at 10 μM” value (Glutamate, Kainate) was -7%, the “% inh at 10 μM” value (Glutamate, NMDA, Agonism) was 3% and the inhibition at 10 µM (Glutamate, NMDA, Glycine) was -18%. For the same molecule, the “% inh at 10 μM” value [8] was -4%, the inhibition at 10 µM [9] was 7% and the inhibition at 10 µM (Muscarinic M1) was -13%. The inhibition at 10 µM (Opiate κ (OP2, KOP)) was 2%, the “% inh at 10 μM” value (Phorbol Ester) was -1% and the inhibition at 10 µM [10] was 3%. The “% inh at 10 μM” value (Sodium Channel, Site 2) was 25%.
